Like-named read-outs stand apart in the source and are kept apart here.
Legend:
[1] = test system: Parkinson's model rats; test: Catalepsy test (bar method), rotenone-induced PD rat model; format: in vivo; settings: scale 0 to 5
Description: (§1) PD was simulated in rats by IP injection of rotenone (3 mg/kg/day) for 11 days. […] On day 30 of the experiment, stride length was recorded based on the spatial distance a paw travels during a stride. Animal forepaws were dipped in black non-toxic ink. The length of forelimb and hindlimb steps in the left and right limbs were measured while walking on a clean piece of paper. Stride length was defined as the distance between each step on the same side of the animal’s body, measured from the mid-digit toe of the first step to the heel of the second.
The catalepsy score was determined using the bar method, which involved measuring the time that rat consumed to remove its forepaws from the rod. The rats were rated on a five-point scale: 0 (0–5 s), 1 (6–15 s), 2 (16–25 s), 3 (26–35 s), 4 (36–60 s), and 5 (>60 s). The rat’s forepaws were gently put on a steel rod positioned 10 cm above the bench. The recording begins when cataleptic animals have been held in this position for at least 30 s (the adapting time).

[2] = test system: dopamine; format: in vivo, rats
Description: as §1
(§2) On day 30 of the experiment, rats were scarified and brain tissues were collected. Brain tissues were homogenized as previously described and the concentration of dopamine in the brain homogenate was assessed by HPLC-equipped with a fluorescence detector set at excitation/emission wavelengths of 280/315 nm as described elsewhere. Catalase activity in brain homogenate was measured using colorimetric assay at 570 nm using hydrogen peroxide.

[3] = test system: catalase; format: in vivo, rats
Description: as §1, §2

[4] = In vivo pharmacokinetic study of Sel in plasma and brain; settings: for AUC(0-t): AUC0–480min; for AUC(0-inf): AUC0–∞; for k el: Kel
Description: All animal experiments were conducted in compliance with the guidelines of the ethical committee, Faculty of Pharmacy, University of Sadat City (approval number RERC-FOP-USC-24-02-08). Adult male albino rats (200 g ± 10%) were randomly divided into two groups each of 48 animals. Animals were subjected to anesthesia using sodium thiopental via intraperitoneal injection (IP). […] At each time point, blood samples were collected from 6 animals by cardiac puncture on heparinized tube and then animals were sacrificed. Blood samples were centrifuged at 9000 rpm and the obtained plasma was stored at −80 °C until analysis. The whole brain was isolated, washed with saline, and homogenized at 10,000 rpm in ice-cold PBS (pH 7.4) for 5 min. The homogenate obtained was centrifuged at 9000 rpm for 15 min. Sel concentration in plasma and brain was quantified using LCMS/MS [49, 50]. The maximum drug concentration (Cmax), time required to achieve Cmax (Tmax), area under the concentration-time curve (AUC0–480min and AUC0–∞), mean residence time (MRT), and elimination rate constant (Kel) in both plasma and brain were calculated. All pharmacokinetics data were calculated using the pharmacokinetic software PK Solver-Add Ins for Microsoft Excel 2007. Additionally, absolute bioavailability as well as the Direct-Transport Percentage (DTP%) and Drug-Targeting Efficiency percentage (DTE%) were calculated using the following equations [51]:DTE = (AUCbrain/AUCplasma) IN/(AUCbrain/AUCplasma) IV × 100(2) DTP% = BIN − BX/BIN × 100(3) where BX = BIV/PIV × PIN
BX is the brain AUC0–480min fraction contributed by systemic circulation, following IN administration; BIV is the brain AUC0–480min following IV administration; PIV is the plasma AUC0–480min following IV administration; BIN is the brain AUC0–480min following IN administration; PIN is the plasma AUC0–480min following IN administration.

[5] = test system: Parkinson's model rats; test: Paw placement and coverage, rotenone-induced PD rat model; format: in vivo; settings: day 30
Description: as §1
On day 30, the distance between the location of the behind paw and the previously placed contralateral front paw was measured during the same step cycle while the area covered when the forelimbs or hindlimbs perform a stride was recorded as the coverage area.

[6] = test system: Parkinson's model rats; test: Open field test, rotenone-induced PD rat model; format: in vivo; settings: 60-minute observation
Description: as §1
An open-field device with 16 sub-squares (40 × 40 × 30 cm; Accuscan Instruments, Columbus, OH, USA) was utilized to examine forelimb and hindlimb locomotor impairments in rats following 30 days of PD induction. Prior to the test, each rat was left in its home cage in the testing area for 2 h before being gently carried by the base of its tail to the center of the open field arena. The animal behavior was then studied for 60 min. To measure the rat’s ambulatory distance, the total number of squares crossed was recorded. Additionally, one of the non-motor characteristics of PD that has been investigated is anxiety, which is indexed by the preference exploration of the open field’s periphery. The number of individuals crossing the center zone was noted.

[7] = test system: Parkinson's model rats; test: Stride length measurement, rotenone-induced PD rat model; format: in vivo; settings: day 30
Description: as §1

[8] = test system: MAO-B; format: in vivo, rats; settings: rotenone 3 mg/kg/day IP 11 days; treatment days 12 and 20; day 30; ELISA
[9] = male, albino, rat, in vivo, iv, 1 mg/kg
[10] = male, albino, rat, in vivo, iv, 1 mg/kg, brain, rat brain, Sel 1 mg/kg, route as in label
[11] = male, albino, rat, in vivo, iv, 1 mg/kg, plasma, rat plasma, Sel 1 mg/kg, route as in label
[12] = rotenone 3 mg/kg/day IP 11 days, treatment days 12 and 20, day 30, mean ± SE (n = 6)

C#CCN(C)[C@H](C)Cc1ccccc1 [IV Sel solution, Selegiline]
Catalepsy score [1]: 2.11 ± 0.11
Dopamine concentration in brain tissue ([2]; rat, in vivo): 125.33 ± 3.71 ng/g
Catalase activity in brain tissue ([3]; rat, in vivo): 24 ± 0.82 U/mg protein
Tmax [4, 9]: 0.5 h
bioavailability [4, 9]: 100%
AUC(0-t) [4, 10]: 850 ± 60 ng·h/mL
AUC(0-t) [4, 11]: 1160 ± 90 ng·h/mL
AUC(0-inf) [4, 10]: 1220 ± 150 ng·h/mL
AUC(0-inf) [4, 11]: 1540 ± 210 ng·h/mL
k el [4, 10]: 4.44e-05 s⁻¹
k el [4, 11]: 4.72e-05 s⁻¹
MRT [4, 10]: 4.56 ± 0.75 h
MRT [4, 11]: 4.22 ± 0.84 h
Cmax, brain ([4]; rat brain, Sel 1 mg/kg, route as in label): 210 ± 30 ng/mL
Paw placement, left side [5]: 12 ± 0.57 mm
Paw placement, right side [5]: 11.66 ± 1.05 mm
Number of center crossings [6]: 8.33 ± 1.49
Stride length, left forelimb [7]: 119.5 ± 2.66 mm

C=C(C)[C@H]1Cc2c(ccc3c2O[C@@H]2COc4cc(OC)c(OC)cc4[C@@H]2C3=O)O1 [rotenone]
Catalepsy score [1]: 4.78 ± 0.17
MAO-B level in brain tissue [8]: 256.33 ± 25.6 ng/g
Dopamine concentration in brain tissue [2, 12]: 49.66 ± 3.23 ng/g
Catalase activity in brain tissue [3, 12]: 12 ± 0.85 U/mg protein
Paw placement, left side [5]: 24.66 ± 2.02 mm
Paw placement, right side [5]: 30.33 ± 2.95 mm
Number of center crossings [6]: 3.00 ± 1.91
Stride length, left forelimb [7]: 102 ± 4.2 mm
